Measurements as given in the NIST ThermoML archive (doi:10.1016/j.jct.2012.12.026).
± gives the expanded uncertainty stated by the source.

Conditions: Liquid, Closed cell (Static) method

Structure (SMILES) | vapor or sublimation pressure (278.15 K) [kPa] | vapor or sublimation pressure (288.15 K) [kPa] | vapor or sublimation pressure (258.15 K) [kPa] | vapor or sublimation pressure (268.15 K) [kPa]
FC(F)C(F)F [1,1,2,2-tetrafluoroethane] | 271.3 ± 1.3 | 382.9 ± 1.5 | – | –
F/C=C/C(F)(F)F [trans-1,3,3,3-tetrafluoropropene] | 259.2 ± 1.1 | 364.2 ± 1.1 | 120.2 ± 1 | 179.3 ± 1
